Where two headings read alike, the source gives them in different places.
Experiments:
[1] = presence of food; cited from earlier work
[2] = Comparative pharmacokinetic study of sublingual thin film and oral formulation in rabbits; assay type: in vivo; conditions: rabbit, blood, male New Zealand White Rabbits
Excerpt: Animals. […] No non-disintegrated film fragments were observed.

[3] = in vitro, human; cited from earlier work
[4] = BCS class I drug substance; cited from earlier work
[5] = cited from earlier work; for oral bioavailability: significant first pass metabolism
[6] = other: sublingual, sublingual route, oral thin film, 10 mg
[7] = oral dosing by gavage as a solution

Which results are given for `CCCCCCCC(=O)N[C@H](CN1CCCC1)[C@H](O)c1ccc2c(c1)OCCO2.O=C(O)C(O)C(O)C(=O)O` [Eliglustat tartrate, N-((1R,2R)-1-(2,3-dihydrobenzo [b] [1,4]dioxin-6-yl)-1-hydroxy-3-(pyrrolidin-1-yl)propan-2-yl) octanamide (2R,3R)-2,3-dihydroxysuccinate]?
effect of food on extent of absorption [1]: did not affect the extent of absorption; AUC(0-inf) [2, 6]: 232 ± 106 ng·h/mL; AUC(0-t) [2, 6]: 226 ± 107 ng·h/mL; Cmax [2, 6]: 79.4 ± 51.6 ng/mL; MRT last [2, 6]: 2.72 ± 0.359 h; Tmax [2, 6]: 40 ± 17.3 min; half-life [2, 6]: 153 ± 30.7 min; AUC(0-inf) [2, 7]: 9.6 ± 6.04 ng·h/mL; AUC(0-t) [2, 7]: 6.31 ± 4.85 ng·h/mL; Cmax [2, 7]: 3.31 ± 2.11 ng/mL; MRT last [2, 7]: 1.53 ± 0.546 h; Tmax [2, 7]: 35 ± 22.9 min; half-life [2, 7]: 141 ± 20.5 min

Which “first-pass effect indicated by metabolic stability” value [3] does the source give for `CCCCCCCC(=O)N[C@H](CN1CCCC1)[C@H](O)c1ccc2c(c1)OCCO2` [Genz-99067] here?
Its value is “significant first-pass effect”.

Which solubility [4] does the source give for `CCCCCCCC(=O)N[C@H](CN1CCCC1)[C@H](O)c1ccc2c(c1)OCCO2` [eliglustat] here?
The solubility was “high”.

What about the absolute bioavailability ([5]; CERDELGA capsule, CHMP European Assessment report) of the same compound?
The absolute bioavailability was 4.49%±4.13.

What about the oral bioavailability [5] of the same compound?
Its oral bioavailability is “less than 5%”.

And the oral bioavailability ([5]; listed as Eliglustat)?
The oral bioavailability was less than 5%.
